From ChEMBL document CHEMBL6121037, “Screening, Discovery, and Optimization of the Natural Antitubercular Chlorflavonin from a Marine-Derived Fungal Library” (J Nat Prod, 2025)
Structures can show the parent of a compound that is named as a salt. Active and inactive are the calls of the source. The rule behind the calls is not given here.

How the values were obtained:
[1] = test system: Mycobacterium marinum; assay: Antibacterial activity against Mycobacterium marinum assessed as reduction in microbial growth at 100 ug/ml; assay type: functional, organism-based; settings: dose 100.0 µg/ml
[2] = test system: Staphylococcus aureus; assay: Antibacterial activity against Staphylococcus aureus assessed as reduction in microbial growth at 25 ug/ml incubated for 24 hrs; assay type: functional, organism-based; settings: dose 25.0 µg/ml
[3] = test system: A549; assay: Cytotoxicity against human A549 cells at 20 uM by MTT assay; assay type: functional, cell-based
[4] = test system: Mycobacterium tuberculosis; assay: Antitubercular activity against Mycobacterium tuberculosis H37Ra assessed as reduction in microbial growth; assay type: functional
[5] = test system: A549; assay: Cytotoxicity against human A549 cells by MTT assay; assay type: functional, cell-based

SMILES: COc1cc(O)c2c(=O)c(OC)c(-c3ccccc3O)oc2c1OC
- Activity [1]: inactive
- Activity [2]: inactive
- Activity [3]: inactive

SMILES: COc1ccc(C(=O)Oc2c(Cl)cccc2-c2oc3c(OC)c(OC)cc(OC(=O)c4ccc(OC)cc4)c3c(=O)c2OC)cc1
- Activity [1]: inactive
- Activity [2]: inactive
- Activity [3]: inactive

SMILES: COc1cc(O)c2c(=O)c(OC)c(-c3cccc(Cl)c3OC(=O)/C=C/c3ccc(F)c(F)c3)oc2c1OC
- Activity [1]: inactive
- Activity [2]: inactive
- Activity [3]: inactive

SMILES: COc1cc(OCc2cccc(C)c2)c2c(=O)c(OC)c(-c3cccc(Cl)c3OCc3cccc(C)c3)oc2c1OC
- Activity [1]: inactive
- Activity [2]: inactive
- Activity [3]: inactive

SMILES: COc1cc(/C=C/C(=O)Oc2c(Cl)cccc2-c2oc3c(OC)c(OC)cc(O)c3c(=O)c2OC)cc(OC)c1OC
- Activity [1]: inactive
- Activity [2]: inactive
- MIC90 [4]: 1.7 µM
- Activity [3]: inactive

SMILES: NNC(=O)c1ccncc1 [ISONIAZID]
- Activity [1]: inactive
- Activity [2]: inactive
- MIC90 [4]: 0.3 µM

SMILES: COc1cc(O)c2c(=O)c(OC)c(-c3cccc(Cl)c3OC(=O)/C=C/c3cccc(Cl)c3)oc2c1OC
- Activity [1]: inactive
- Activity [2]: inactive
- MIC90 [4]: 0.9 µM
- Activity [3]: inactive

SMILES: COc1cc(O)c2c(=O)c(OC)c(-c3cccc(Cl)c3OCc3ccc(F)cc3)oc2c1OC
- Activity [1]: inactive
- Activity [2]: inactive
- Activity [3]: inactive

SMILES: COc1cc(OC(=O)c2cccc(N(C)C)c2)c2c(=O)c(OC)c(-c3cccc(Cl)c3OC(=O)c3cccc(N(C)C)c3)oc2c1OC
- Activity [1]: inactive
- Activity [2]: inactive
- Activity [3]: inactive

SMILES: COc1cc(OC(=O)/C=C/c2ccc(C(F)(F)F)cc2)c2c(=O)c(OC)c(-c3cccc(Cl)c3OC(=O)/C=C/c3ccc(C(F)(F)F)cc3)oc2c1OC
- Activity [1]: inactive
- Activity [2]: inactive
- Activity [3]: inactive

SMILES: COc1cc(OCc2ccc(C(C)(C)C)cc2)c2c(=O)c(OC)c(-c3cccc(Cl)c3OCc3ccc(C(C)(C)C)cc3)oc2c1OC
- Activity [1]: inactive
- Activity [2]: inactive
- Activity [3]: inactive

SMILES: COc1cc(O)c2c(=O)c(OC)c(-c3cc(Br)cc(Cl)c3O)oc2c1OC
- Activity [1]: inactive
- Activity [2]: inactive
- Activity [3]: inactive

SMILES: COc1c(Br)c(O)c2c(=O)c(OC)c(-c3cc(Br)cc(Cl)c3O)oc2c1OC
- Activity [1]: inactive
- Activity [2]: inactive
- Activity [3]: inactive

SMILES: COc1cc(O)c2c(=O)c(OC)c(-c3cccc(Cl)c3OCc3cccc(C)c3)oc2c1OC
- Activity [1]: inactive
- Activity [2]: inactive
- Activity [3]: inactive

SMILES: COc1cc(O)c2c(=O)c(OC)c(-c3cccc(Cl)c3OC(=O)/C=C/c3ccccc3)oc2c1OC
- Activity [1]: inactive
- Activity [2]: inactive
- MIC90 [4]: 2 µM
- Activity [3]: inactive

SMILES: COc1cc(O)c2c(=O)c(OC)c(-c3cccc(Cl)c3OC(=O)/C=C/c3cccnc3)oc2c1OC
- Activity [1]: inactive
- Activity [2]: inactive
- MIC90 [4]: 2 µM
- Activity [3]: inactive

SMILES: COc1cc(OC(=O)c2cccs2)c2c(=O)c(OC)c(-c3cccc(Cl)c3OC(=O)c3cccs3)oc2c1OC
- Activity [1]: inactive
- Activity [2]: inactive
- Activity [3]: inactive

SMILES: COc1cc(C(=O)Oc2c(Cl)cccc2-c2oc3c(OC)c(OC)cc(OC(=O)c4cc(OC)c(OC)c(OC)c4)c3c(=O)c2OC)cc(OC)c1OC
- Activity [1]: inactive
- Activity [2]: inactive
- Activity [3]: inactive

SMILES: COc1ccc(C(=O)Oc2c(Cl)cccc2-c2oc3c(OC)c(OC)cc(O)c3c(=O)c2OC)cc1
- Activity [1]: inactive
- Activity [2]: inactive
- MIC90 [4]: 2 µM
- Activity [3]: inactive

SMILES: COc1cc(O)c2c(=O)c(OC)c(-c3cccc(Cl)c3OC(=O)c3cccc(Cl)c3)oc2c1OC
- Activity [1]: inactive
- Activity [2]: inactive
- MIC90 [4]: 1.9 µM
- Activity [3]: inactive

SMILES: COc1cc(O)c2c(=O)c(OC)c(-c3cccc(Cl)c3OCCc3cccc(F)c3)oc2c1OC
- Activity [1]: inactive
- Activity [2]: inactive
- Activity [3]: inactive

SMILES: COc1cc(OC(=O)c2ccccc2)c2c(=O)c(OC)c(-c3cccc(Cl)c3OC(=O)c3ccccc3)oc2c1OC
- Activity [1]: inactive
- Activity [2]: inactive
- MIC90 [4]: 1.7 µM
- Activity [3]: inactive

SMILES: COc1ccc(/C=C/C(=O)Oc2c(Cl)cccc2-c2oc3c(OC)c(OC)cc(O)c3c(=O)c2OC)cc1
- Activity [1]: inactive
- Activity [2]: inactive
- MIC90 [4]: 1.9 µM
- Activity [3]: inactive

SMILES: COc1cc(O)c2c(=O)c(OC)c(-c3cccc(Cl)c3OC(=O)/C=C/c3ccc(C)cc3)oc2c1OC
- Activity [1]: inactive
- Activity [2]: inactive
- MIC90 [4]: 1.9 µM
- Activity [3]: inactive

SMILES: COc1cc(O)c2c(=O)c(OC)c(-c3cccc(Br)c3O)oc2c1OC
- MIC90 [4]: 1.2 µM

SMILES: COc1cc(OCc2ccc(C(F)(F)F)cc2)c2c(=O)c(OC)c(-c3cccc(Cl)c3OCc3ccc(C(F)(F)F)cc3)oc2c1OC
- Activity [1]: inactive
- Activity [2]: inactive
- Activity [3]: inactive

SMILES: COc1cc(OC(=O)c2cccc(Cl)c2)c2c(=O)c(OC)c(-c3cccc(Cl)c3OC(=O)c3cccc(Cl)c3)oc2c1OC
- Activity [1]: inactive
- Activity [2]: inactive
- Activity [3]: inactive

SMILES: COc1cc(OC(=O)c2cccc(F)c2)c2c(=O)c(OC)c(-c3cccc(Cl)c3OC(=O)c3cccc(F)c3)oc2c1OC
- Activity [1]: inactive
- Activity [2]: inactive
- MIC90 [4]: 1.6 µM
- Activity [3]: inactive

SMILES: COc1cc(O)c2c(=O)c(OC)c(-c3cccc(Cl)c3OC(=O)/C=C/c3ccsc3)oc2c1OC
- Activity [1]: inactive
- Activity [2]: inactive
- MIC90 [4]: 1.9 µM
- Activity [3]: inactive

SMILES: COc1cc(C(=O)Oc2c(Cl)cccc2-c2oc3c(OC)c(OC)cc(O)c3c(=O)c2OC)cc(OC)c1OC
- Activity [1]: inactive
- Activity [2]: inactive
- MIC90 [4]: 1.8 µM
- Activity [3]: inactive

SMILES: COc1cc(OCc2cccc(F)c2)c2c(=O)c(OC)c(-c3cccc(Cl)c3OCc3cccc(F)c3)oc2c1OC
- Activity [1]: inactive
- Activity [2]: inactive
- Activity [3]: inactive

SMILES: COc1cccc2c1C(=O)c1c(O)c3c(c(O)c1C2=O)C[C@@](O)(C(=O)CO)C[C@@H]3O[C@H]1C[C@H](N)[C@H](O)[C@H](C)O1 [DOXORUBICIN HYDROCHLORIDE]
- IC50 [5]: 250 nM

SMILES: COc1cc(O)c2c(=O)c(OC)c(-c3cccc(Cl)c3OC(=O)c3cccc(C)c3)oc2c1OC
- Activity [1]: inactive
- Activity [2]: inactive
- Activity [3]: inactive

SMILES: COc1cc(O)c2c(=O)c(OC)c(-c3cccc(Cl)c3OC(=O)/C=C/c3ccc(N(C)C)cc3)oc2c1OC
- Activity [1]: inactive
- Activity [2]: inactive
- Activity [3]: inactive

SMILES: COc1cc(O)c2c(=O)c(OC)c(-c3cccc(Cl)c3OC(=O)/C=C/c3ccccc3Cl)oc2c1OC
- Activity [1]: inactive
- Activity [2]: inactive
- MIC90 [4]: 0.7 µM
- Activity [3]: inactive

SMILES: COc1cc(O)c2c(=O)c(OC)c(-c3cccc(Cl)c3OC(=O)c3cccc(Br)c3)oc2c1OC
- Activity [1]: inactive
- Activity [2]: inactive
- MIC90 [4]: 1.8 µM
- Activity [3]: inactive

SMILES: COc1cc(O)c2c(=O)c(OC)c(-c3cccc(Cl)c3OC(=O)c3ccccc3)oc2c1OC
- Activity [1]: inactive
- Activity [2]: inactive
- MIC90 [4]: 1 µM
- Activity [3]: inactive

SMILES: COc1cc(O)c2c(=O)c(OC)c(-c3cccc(Cl)c3OC(=O)N(C)C)oc2c1OC
- Activity [1]: inactive
- Activity [2]: inactive
- Activity [3]: inactive

SMILES: COc1cc(O)c2c(=O)c(OC)c(-c3cccc(Cl)c3OC(=O)c3cccnc3)oc2c1OC
- Activity [1]: inactive
- Activity [2]: inactive
- MIC90 [4]: 2.1 µM
- Activity [3]: inactive

SMILES: COc1cc(O)c2c(=O)c(OC)c(-c3cccc(Cl)c3OC(=O)c3cccc(N)c3)oc2c1OC
- Activity [1]: inactive
- Activity [2]: inactive
- MIC90 [4]: 2 µM
- Activity [3]: inactive

SMILES: COc1cc(O)c2c(=O)c(OC)c(-c3cccc(Cl)c3OC(=O)/C=C/c3ccc(C(F)(F)F)cc3)oc2c1OC
- Activity [1]: inactive
- Activity [2]: inactive
- MIC90 [4]: 1.7 µM
- Activity [3]: inactive

SMILES: COc1cc(O)c2c(=O)c(OC)c(-c3cccc(Cl)c3OCc3ccc(C(C)(C)C)cc3)oc2c1OC
- Activity [1]: inactive
- Activity [2]: inactive
- Activity [3]: inactive

SMILES: COc1cc(O)c2c(=O)c(OC)c(-c3cccc(Cl)c3O)oc2c1OC
- Activity [1]: inactive
- Activity [2]: inactive
- MIC90 [4]: 2.6 µM
- Activity [3]: inactive
